Experimental data: the NIST ThermoML archive (doi:10.1021/je7000039)
Numbers after ± are expanded uncertainties.

Conditions: Crystal; DTA

Row | SMILES | Normal melting temperature [°C]
1 | C[C@H]1[C@H](OC(=O)CCC(=O)O)O[C@@H]2O[C@@]3(C)CC[C@H]4[C@H](C)CC[C@@H]1[C@@]24OO3 [artesunate] | 139.66 ± 0.5
2 | CO[C@H]1O[C@@H]2O[C@@]3(C)CC[C@H]4[C@H](C)CC[C@@H]([C@H]1C)[C@@]24OO3 [beta-artemether] | 83.98 ± 0.5
3 | C[C@@H]1CC[C@H]2[C@@H](C)C(=O)O[C@@H]3O[C@@]4(C)CC[C@@H]1[C@]32OO4 [artemisinin] | 148.28 ± 0.5
